# Assay results: patent publication US20170334899A1, “AMINO-SUBSTITUTED ISOTHIAZOLES” (Bayer Pharma Aktiengesellschaft, priority 2014, published 2017)
# pIC50: −log10 of the molar value.
# Target: T1, human kinase Mps-1 (Homo sapiens, UniProt P33981)
# T1 construct: N-terminally GST-tagged human full length recombinant Mps-1 kinase; GST (N); purchased Invitrogen, Karslruhe, Germany PV4071
# T1 sequence (P33981 1-857): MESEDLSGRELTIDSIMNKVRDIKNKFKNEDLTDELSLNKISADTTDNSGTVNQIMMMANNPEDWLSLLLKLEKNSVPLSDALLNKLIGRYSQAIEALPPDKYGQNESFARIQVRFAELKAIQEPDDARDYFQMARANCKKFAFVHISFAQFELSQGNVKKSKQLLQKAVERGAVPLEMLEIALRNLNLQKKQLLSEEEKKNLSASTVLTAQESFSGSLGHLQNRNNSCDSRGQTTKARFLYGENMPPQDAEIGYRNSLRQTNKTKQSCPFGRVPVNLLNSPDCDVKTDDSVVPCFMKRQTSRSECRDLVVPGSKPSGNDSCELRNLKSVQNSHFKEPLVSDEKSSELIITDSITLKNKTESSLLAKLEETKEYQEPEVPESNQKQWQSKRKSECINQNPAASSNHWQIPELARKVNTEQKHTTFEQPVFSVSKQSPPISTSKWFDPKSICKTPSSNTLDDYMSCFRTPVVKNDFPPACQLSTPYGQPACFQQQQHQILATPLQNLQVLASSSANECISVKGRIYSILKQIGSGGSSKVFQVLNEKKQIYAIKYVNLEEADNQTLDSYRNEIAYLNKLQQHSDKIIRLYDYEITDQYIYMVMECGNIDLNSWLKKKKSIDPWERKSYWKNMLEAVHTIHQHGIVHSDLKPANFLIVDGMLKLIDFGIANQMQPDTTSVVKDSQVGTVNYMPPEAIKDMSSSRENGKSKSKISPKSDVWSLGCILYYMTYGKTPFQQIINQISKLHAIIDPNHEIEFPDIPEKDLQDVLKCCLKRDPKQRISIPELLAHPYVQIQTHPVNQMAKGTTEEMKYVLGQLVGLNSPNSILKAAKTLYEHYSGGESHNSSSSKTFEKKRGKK
# Test: Mps-1 kinase assay (TR-FRET)
# Format: biochemical
# Conditions: Mps-1 TR-FRET kinase assay; avg; read-out: Mps1 avg (IC50 [mol/l])
# Outline: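 GST-tagged full-length recombinant human Mps-1 (~0.5 nM) pre-incubated 15 min with compound, then reacted 60 min at 22 °C with 10 μM ATP and 1 μM biotinylated peptide in Hepes pH 7.7 buffer. EDTA-stopped; TR-FRET (Eu anti-phospho-Ser/Thr to SA-XLent) 665/620 nm ratio normalised to no-inhibitor and no-enzyme controls.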
smiles,measurement,value
"Cc1nsc(Nc2ccc(C#N)cn2)c1C(=O)Nc1ccc(OC2CCNCC2)nc1 [Example 28, 5-[(5-Cyanopyridin-2-yl)amino]-3-methyl-N-[6-(piperidin-4-yloxy)pyridin-3-yl]-1,2-thiazole-4-carboxannide]",pIC50,≤ 4.70
"Cc1nsc(Nc2ccc(C#N)cn2)c1C(=O)Nc1ccc(OC2CCN(CCF)CC2)nc1 [Example 29, 5-[(5-Cyanopyridin-2-yl)amino]-N-(6-{[1-(2-fluoroethyl)piperidin-4-yl]oxy}pyridin-3-yl)-3-methyl-1,2-thiazole-4-carboxamide]",pIC50,≤ 4.70
"Cc1nsc(Nc2ccc(C#N)cn2)c1C(=O)Nc1ccc(OC2CCN(CC(F)(F)F)CC2)nc1 [Example 30, 5-[(5-Cyanopyridin-2-yl)amino]-3-methyl-N-(6-{[1-(2,2,2-trifluoroethyl)piperidin-4-yl]oxy}pyridin-3-yl)-1,2-thiazole-4-carboxamide]",pIC50,≤ 4.70
"Cc1nsc(Nc2cnc3ccccc3n2)c1C(=O)Nc1ccc(OC2CCCN(C(=O)OC(C)(C)C)C2)nc1 (stereo not drawn) [Example 31, tert-Butyl 3-{[5-({[3-methyl-5-(quinoxalin-2-ylamino)-1,2-thiazol-4-yl]carbonyl}-amino)pyridin-2-yl]oxy}piperidine-1-carboxylate]",pIC50,≤ 4.70
"Cc1nsc(Nc2cnc3ccccc3n2)c1C(=O)Nc1ccc(OC2CCCNC2)nc1 (stereo not drawn) [Example 32, 3-Methyl-N-[6-(piperidin-3-yloxy)pyridin-3-yl]-5-(quinoxalin-2-ylamino)-1,2-thiazole-4-carboxannide]",pIC50,4.82
"Cc1nsc(Nc2cnc3ccccc3n2)c1C(=O)Nc1ccc(OC2CCCN(CC(F)F)C2)nc1 (stereo not drawn) [Example 33, N-(6-{[1-(2,2-Difluoroethyl)piperidin-3-yl]oxy}pyridin-3-yl)-3-methyl-5-(quinoxalin-2-ylamino)-1,2-thiazole-4-carboxamide]",pIC50,≤ 4.70
"Cc1nsc(Nc2cc(C#N)ccn2)c1C(=O)Nc1ccc(OC2CCCN(C(=O)OC(C)(C)C)C2)nc1 (stereo not drawn) [Example 34, tert-Butyl 3({5-[({5-[(4-cyanopyridin-2-yl)amino]-3-methyl-1,2-thiazol-4-yl}-carbonyl)amino]pyridin-2-yl}oxy)piperidine-1-carboxylate]",pIC50,≤ 4.70
"Cc1nsc(Nc2cnc(C(F)(F)F)cn2)c1C(=O)Nc1ccc(OCCNCCC(F)(F)F)nc1 [Example 323, 3-methyl-5-{[5-(trifluoromethyl)pyrazin-2-yl]amino}-N-(6-{2-[(3,3,3-trifluoropropyl)amino]ethoxy}pyridin-3-yl)-1,2-thiazole-4-carboxamide]",pIC50,≤ 4.70
"Cc1nsc(Nc2cnc(C(F)(F)F)cn2)c1C(=O)Nc1ccc(OC2CCN(C(CF)CF)CC2)nc1 [Example 324, N-(6-{[1-(1,3-difluoropropan-2-yl)piperidin-4-yl]oxy}pyridin-3-yl)-3-methyl-5-{[5-(trifluoromethyl)pyrazin-2-yl]amino}-1,2-thiazole-4-carboxamide]",pIC50,≤ 4.70
"Cc1nsc(Nc2cnc(C(F)(F)F)cn2)c1C(=O)Nc1ccc(OCC2CCCN(CCF)C2)nc1 (stereo not drawn) [Example 325, N-(6-{[1-(2-fluoroethyl)piperidin-3-yl]methoxy}pyridin-3-yl)-3-methyl-5-{[5-(trifluoromethyl)pyrazin-2-yl]amino}-1,2-thiazole-4-carboxamide]",pIC50,≤ 4.70
"Cc1nsc(Nc2cnc(C(F)(F)F)cn2)c1C(=O)Nc1ccc(OCC2CCCN(CC(F)(F)F)C2)nc1 (stereo not drawn) [Example 326, 3-methyl-N-(6-{[1-(2,2,2-trifluoroethyl)piperidin-3-yl]methoxy}pyridin-3-yl)-5-{[5-(trifluoromethyl)pyrazin-2-yl]amino}-1,2-thiazole-4-carboxamide]",pIC50,≤ 4.70
"Cc1nsc(Nc2cnc(C(F)(F)F)cn2)c1C(=O)Nc1ccc(OCC2CCCN(CC(F)F)C2)nc1 (stereo not drawn) [Example 327, N-(6-{[1-(2,2-difluoroethyl)piperidin-3-yl]methoxy}pyridin-3-yl)-3-methyl-5-{[5-(trifluoromethyl)pyrazin-2-yl]amino}-1,2-thiazole-4-carboxamide]",pIC50,≤ 4.70
"Cc1nsc(Nc2cnc(C(F)(F)F)cn2)c1C(=O)Nc1ccc(OCC2CCCN(CCC(F)(F)F)C2)nc1 (stereo not drawn) [Example 328, 3-methyl-5-{[5-(trifluoromethyl)pyrazin-2-yl]amino}-N-(6-{[1-(3,3,3-trifluoropropyl)piperidin-3-yl]methoxy}pyridin-3-yl)-1,2-thiazole-4-carboxamide]",pIC50,≤ 4.70
"Cc1nsc(Nc2cnc(C(F)(F)F)cn2)c1C(=O)Nc1ccc(OC2CCCN(CCF)C2)nc1 (stereo not drawn) [Example 329, N-(6-{[1-(2-fluoroethyl)piperidin-3-yl]oxy}pyridin-3-yl)-3-methyl-5-{[5-(trifluoromethyl)pyrazin-2-yl]amino}-1,2-thiazole-4-carboxamide]",pIC50,≤ 4.70
"Cc1nsc(Nc2cnc(C(F)(F)F)cn2)c1C(=O)Nc1ccc(OC2CCCN(CC(F)F)C2)nc1 (stereo not drawn) [Example 330, N-(6-{[1-(2,2-difluoroethyl)piperidin-3-yl]oxy}pyridin-3-yl)-3-methyl-5-{[5-(trifluoromethyl)pyrazin-2-yl]amino}-1,2-thiazole-4-carboxamide]",pIC50,≤ 4.70
"Cc1nsc(Nc2cnc(C(F)(F)F)cn2)c1C(=O)Nc1ccc(OC2CCCN(CCC(F)(F)F)C2)nc1 (stereo not drawn) [Example 332, 3-methyl-5-{[5-(trifluoromethyl)pyrazin-2-yl]amino}-N-(6-{[1-(3,3,3-trifluoropropyl)piperidin-3-yl]oxy}pyridin-3-yl)-1,2-thiazole-4-carboxamide]",pIC50,≤ 4.70
"Cc1nsc(Nc2cnc(C(F)(F)F)cn2)c1C(=O)Nc1ccc(OC2CCCN(C(CF)CF)C2)nc1 (stereo not drawn) [Example 333, N-(6-{[1-(1,3-difluoropropan-2-yl)piperidin-3-yl]oxy}pyridin-3-yl)-3-methyl-5-{[5-(trifluoromethyl)pyrazin-2-yl]amino}-1,2-thiazole-4-carboxamide]",pIC50,≤ 4.70
"Cc1nsc(Nc2cnc(C(F)(F)F)cn2)c1C(=O)Nc1ccc(F)c(OCC2CCCN(CC(F)F)C2)c1 (stereo not drawn) [Example 334, N-(3-{[1-(2,2-difluoroethyl)piperidin-3-yl]methoxy}-4-fluorophenyl)-3-methyl-5-{[5-(trifluoromethyl)pyrazin-2-yl]amino}-1,2-thiazole-4-carboxamide]",pIC50,≤ 4.70
"Cc1nsc(Nc2cnc(C(F)(F)F)cn2)c1C(=O)Nc1ccc(F)c(OCC2CCCN(CCF)C2)c1 (stereo not drawn) [Example 336, N-(4-fluoro-3-{[1-(2-fluoroethyl)piperidin-3-yl]methoxy}phenyl)-3-methyl-5-{[5-(trifluoromethyl)pyrazin-2-yl]amino}-1,2-thiazole-4-carboxamide]",pIC50,≤ 4.70
"Cc1nsc(Nc2cnc(C(F)(F)F)cn2)c1C(=O)Nc1ccc(F)c(OCC2CCCN(CC(F)(F)F)C2)c1 (stereo not drawn) [Example 337, N-(4-fluoro-3-{[1-(2,2,2-trifluoroethyl)piperidin-3-yl]methoxy}phenyl)-3-methyl-5-{[5-(trifluoromethyl)pyrazin-2-yl]amino}-1,2-thiazole-4-carboxamide]",pIC50,≤ 4.70
"Cc1nsc(Nc2cnc(C(F)(F)F)cn2)c1C(=O)Nc1ccc(F)c(OCC2CCCN(CCC(F)(F)F)C2)c1 (stereo not drawn) [Example 338, N-(4-fluoro-3-{[1-(3,3,3-trifluoropropyl)piperidin-3-yl]methoxy}phenyl)-3-methyl-5-{[5-(trifluoromethyl)pyrazin-2-yl]amino}-1,2-thiazole-4-carboxamide]",pIC50,≤ 4.70
"Cc1nsc(Nc2cncc(C(F)(F)F)n2)c1C(=O)Nc1ccc(F)c(OC2CCN(CCC(F)(F)F)CC2)c1 [Example 343, N-(4-fluoro-3-{[1-(3,3,3-trifluoropropyl)piperidin-4-yl]oxy}phenyl)-3-methyl-5-{[6-(trifluoromethyl)pyrazin-2-yl]amino}-1,2-thiazole-4-carboxamide]",pIC50,≤ 4.70
"Cc1nsc(Nc2cnc(C(F)(F)F)cn2)c1C(=O)Nc1ccc(OCC2CCN(CCF)CC2)nc1 [Example 344, N-(6-{[1-(2-fluoroethyl)piperidin-4-yl]methoxy}pyridin-3-yl)-3-methyl-5-{[5-(trifluoromethyl)pyrazin-2-yl]amino}-1,2-thiazole-4-carboxamide]",pIC50,< 4.70
"Cc1nsc(Nc2cnc(C(F)(F)F)cn2)c1C(=O)Nc1ccc(OCC2CCN(CC(F)F)CC2)nc1 [Example 345, N-(6-{[1-(2,2-difluoroethyl)piperidin-4-yl]methoxy}pyridin-3-yl)-3-methyl-5-{[5-(trifluoromethyl)pyrazin-2-yl]amino}-1,2-thiazole-4-carboxamide]",pIC50,< 4.70
